Reference: patent US5281710A, “Dynemicin analogs: synthesis, methods of preparation and use” (The Scripps Research Institute, priority 1992, dated 1994)
Read-outs that look alike come from different tables or passages of the source.

What was measured:
SK-Mel-28 melanoma cells = experiment: Sulforhodamine B cytotoxicity, SK-Mel-28; assay type: cell-based; settings: Homo sapiens
Procedure: (§1) In addition to the screening already discussed, several of the before-described compounds and chimeras were screened against several or all of a panel of ten to twenty-five cancerous cell lines as target cells and seven "normal" cell preparations. This screening utilized a sulforhodamine B cytotoxidity assay as discussed below.
(§2) IC50 values; i.e., the concentration of Compound required to kill one-half of the treated cells, were then calculated.

in vitro = assay type: cell-based, human; settings: human, nhdf cells; Table 7, NHDF; read-out: Cytotoxicity (IC50)
Procedure: as §1, §2
(§3) NHDF Normal human dermal fibroblasts

[1] = tested on: H-322 lung carcinoma cells; experiment: Sulforhodamine B cytotoxicity, H-322; assay type: cell-based; settings: NCI-H322; Table 7, H-322; read-out: Cytotoxicity (IC50)
Procedure: as §1, §2

[2] = tested on: P-388 mouse lymphoma cells; experiment: Sulforhodamine B cytotoxicity, P-388; assay type: cell-based; settings: Mus musculus, P388; Table 7, P-388; read-out: Cytotoxicity (IC50)
Procedure: as §1, §2

[3] = tested on: Ovcar-3 ovarian carcinoma cells; experiment: Sulforhodamine B cytotoxicity, Ovcar-3; assay type: cell-based; settings: read-out: Cytotoxicity (IC50)
Procedure: as §1, §2

cancer cell lines = experiment: cells; assay type: cell-based; settings: Average data obtained from 5~10 cell lines; read-out: IC50 (average)
Procedure: as §1
SULFORHODAMINE B CYTOTOXICITY ASSAY
a. Stock drug solutions were prepared by dissolving drug in the appropriate solvent (determined during chemical characterization studies) and sterile filtering the drug-solvent solution through a sterile 0.2μ filter unit. An aliquot was taken from each filtered drug solution and the O.D. was measured to determine the drug concentration.
f. Incubate (37° C., 5-10 percent CO2 in humidified incubator) plates for a total of 72 hours. Check plates at 24 hour intervals microscopically for signs of cytotoxicity.
as §2
All other cells or cell lines were obtained from the American Type Culture Collection (ATCC) (all except CHO cells are human or mouse cancer cell lines as described by the ATC).
Tables 1 and 2 herein below provide average IC50 data from five to all ten of the above cancer cells lines for fused ring enediyne compounds disclosed herein. Those tables provide a generic structure and a description of the R group of that generic structure for each compound. Compound numbers as noted hereinbefore are also provided. Table 3 contains data for two fused-ring enediyne compounds (Compounds 47 and 120) as well as data for six chimers. Table 4 contains cancer cell and noraml cell cytotoxicity data for one select fused ring enediyne, Compound 153 against a number of "normal" cell preparations and tumor cell lines. Table 5 contains cancer cell and normal cell cytotoxicity data for another fused ring enediyne, Compound 250 against a similar panel of cells.

[4] = tested on: HT-29 colon carcinoma cells; experiment: Sulforhodamine B cytotoxicity, HT-29; assay type: cell-based; settings: Table 7, HT-29, read-out: Cytotoxicity (IC50)
Procedure: as §1, §2

[5] = tested on: UCLA P-3 non-small cell lung carcinoma cells; experiment: Sulforhodamine B cytotoxicity, UCLA-P3; assay type: cell-based, human; settings: read-out: Cytotoxicity (IC50)
Procedure: as §1, §2
UCLA P-3 Dr. D. Morton, University of California, […]

[6] = tested on: MCF-7 breast carcinoma cells; experiment: Sulforhodamine B cytotoxicity, MCF-7; assay type: cell-based; settings: Table 7, MCF-7, read-out: Cytotoxicity (IC50)
Procedure: as §1, §2

[7] = tested on: Capan-1 pancreatic carcinoma cells; experiment: Sulforhodamine B cytotoxicity, Capan-1; assay type: cell-based
Procedure: as §1, §2

[8] = Sulforhodamine B cytotoxicity, CHO; assay type: cell-based, Chinese hamster; settings: hamster, cho cells; Table 7, CHO; read-out: Cytotoxicity (IC50)
Procedure: as §1, §2

[9] = tested on: HL-60 promyeocytic leukemia cells; experiment: Sulforhodamine B cytotoxicity, HL-60; assay type: cell-based
Procedure: as §1, §2

[10] = tested on: SK-Mel-28, M-14, M-21, Capan-1, Ovcar-3, Ovcar-4, UCLA-P-3, U-87, U-251 and Molt-4 cell lines; assay type: cell-based; settings: ten tumor cell lines
Procedure: In other studies, IC50 values were determined for the anti-tumor agents dynemicin A, calicheamicin γ1^I, taxol, vinblastine/vincristine, doxorubicin, actinomycin D and bleomycin sulfate against the SK-Mel-28, M-14, M-21, Capan-1, Ovcar-3, Ovcar-4, UCLA-P-3, U-87, U-251 and Molt-4 cell lines.

[11] = tested on: tumor cells and "normal" cells; experiment: Relative activity against tumor cells and normal cells; assay type: cell-based
Description: In contrast, 100 percent of normal human mammary epithelial cells (HMEC) were viable at the same concentration.

[12] = tested on: MOLT-4 (Leukemia) cell line; experiment: cells; assay type: cell-based; settings: read-out: Cytotoxicity (IC50)
Procedure: as §1, §2

φX174 Form I DNA = experiment: φX174 supercoiled DNA cleavage, agarose gel; assay type: biochemical; settings: for DNA cleavage: 37° C.
Procedure: The ethereal solution of Compound 40 produced by the LiAlH4 reduction of Compound 21 (39 mg, 0.10 mmol) was evaporated in vacuo to dryness and the residue dissolved in THF (4 mL) to give a 25 mM solution of Compound 40, assuming complete conversion of Compound 21. […]
Thus, a vial containing a 50 micromolar per base pair solution […] of the same buffer solution and 2.0 microliters of a 5.0 millimolar ethanol solution of Compound 40.
[…] A 2.0 microliter portion of glycerol loading buffer solution containing bromothymol blue indicator was added to each vial. A 10 microliter aliquot was then drawn from each. Gel electrophoresis analysis of the aliquots was performed using a 1.0 percent agarose gel with ethidium bromide run at 115 volts for 1 hour. DNA cleavage was indicated by the formation of nicked relaxed circular DNA (form II) or linearized DNA (form III), which was detected by visual inspection of the gel under 310 nanometer ultraviolet light using ethidium bromide.

[13] = tested on: P-388 leukemia cells in Balb/c mice; experiment: In vivo P-388 leukemia in Balb/c mice; parameters: species or system mouse; settings: single dose
Procedure: In an in vivo study whose results are shown in FIG. 8, Balb/c mice were injected intra-peritoneally with 10^6 P-388 leukemia cells per mouse (the cells were suspended in 100 μl RPMI medium) on day zero. Therapy was started on day 1 by injecting each group of four animals with the indicated dose of Compound 45, which was administered only once in this assay. The course of therapy was followed by tumor-induced weight change in the animals and by recording death incidents (arrows). […] At the dose of 25 mg/kg Compound 45, the increase in life span over the control group was 175 percent (therapeutic group/control group).

[14] = Lethal dose / toxicity in mice; assay type: in vivo, mouse
[15] = tested on: MCF-7(ADR) breast carcinoma cells; experiment: Sulforhodamine B cytotoxicity, MCF-7/ADR; assay type: cell-based; settings: Homo sapiens, NCI/ADR-RES, Adriamycin resistant
Procedure: as §1, §2

[16] = tested on: 93 base-pair Sal I - Sph I double-stranded DNA fragment of pBR322; experiment: DNase I footprinting of oligosaccharide glycosides; assay type: binding; settings: 37° C., 30 minutes pre-incubation
Description: Footprinting studies the O-methyl glycosides of saccharides A, an analog of C, F, G and H, Compounds A-1, C'-1, F-1, G-1 and H-1, respecitvely, as shown below, were designed to probe these questions.
The oligosaccharides A-1, C'-1, F-1, G-1 and H-1 were obtained by chemical synthesis following procedures similar to those discussed before. The 93 base-pair Sal I - Sph I double-stranded DNA fragment of pBR322 was obtained enzymatically and was [5-^32 P]-labeled on one strand. pBR322 DNA was cleaved at the unique Sal I site, dephosphorylated using calf intestine phosphatase, (5'-^32 P]-phosphorylated using T4 polynucletide kinase and [g-^32 P] ATP (4.5 ^m Ci/pmol) , and cleaved again at the unique Sph I site. These precursors generated a 93 base-pair double-stranded fragment, (5'-^32 P)-labeled at the Sal I end, which was purified by gel electrophosresis in a nondenaturing 10 percent polyacrylamide gel and subsequent column chromatography on Sephadex G-25. The oligosaccharides were pre-incubated with the DNA fragment at 37° C. for 30 minutes and DNase I was added to cleave the DNA and generate footprinting patterns by autoradiography.
The degree of protection against DNase I digestion offered by both the natural and unnatural stereoisomers was determined by comparing the amount of radioactivity in adjacent lanes along the electrophoresis gel. […]

[17] = tested on: NHDF normal human dermal fibroblasts; experiment: in vitro; assay type: cell-based; settings: Table 7, NHDF
Procedure: as §1, §2, §3

[18] = tested on: CHO Chinese hamster ovary cells; experiment: Sulforhodamine B cytotoxicity, CHO; assay type: cell-based; settings: Table 7, CHO
Procedure: as §1, §2

[19] = SK-MEL-28, Table 7, SK-Mel-28, read-out: Cytotoxicity (IC50)
[20] = Homo sapiens, OVCAR-3, Table 7, Ovcar-3
[21] = Homo sapiens, UCLA P-3, Table 7, UCLA-P3
[22] = Homo sapiens, CAPAN-1, Table 7, Capan-1, read-out: Cytotoxicity (IC50)
[23] = Homo sapiens, HL-60, Table 7, HL-60, read-out: Cytotoxicity (IC50)
[24] = 5.0 mM, pH 8.5 and 9.0, 48 hours

Compound: O=C(Oc1ccccc1)N1c2ccccc2C23OC24CCCC3C#C/C=C\C#CC14 (stereo not drawn) [Compound 21]
- IC50 (SK-Mel-28 melanoma cells; [19]): 63 µM
- CC50 (in vitro): 6.3 µM
- IC50 [1]: 3.1 µM
- IC50 [2]: 0.098 µM
- IC50 [3, 20]: 0.78 µM
- IC50 (cancer cell lines): 5 µM
- IC50 ([4]; Homo sapiens, HT-29, 72 h): 0.39 µM
- IC50 [5, 21]: 0.78 µM
- IC50 ([6]; Homo sapiens, MCF7, 72 h): 3.1 µM
- IC50 [7, 22]: 0.078 µM
- CC50 [8]: 6.3 µM
- IC50 [9, 23]: 0.098 µM

Compound: bleomycin sulfate [reference compound]
- relative potency among agents across cell lines [10]: considerably less active against all the cell lines

Compound: CC(COC(=O)N1c2ccccc2C23OC24CCCC3C#CC=CC#CC14)S(=O)(=O)c1ccccc1 (stereo not drawn) [Compound 427]
- IC50 (SK-Mel-28 melanoma cells; [19]): 50 µM
- CC50 (in vitro): < 100 µM
- IC50 [1]: 13 µM
- IC50 [2]: 1.6 µM
- IC50 ([3]; Table 7, Ovcar-3): 3.1 µM
- IC50 ([4]; 4320 min): 0.78 µM
- IC50 ([5]; Table 7, UCLA-P3): 3.1 µM
- selectivity between normal and cancer cells (qualitative) [11]: reduced cytotoxicity of Compound 427 against normal cell lines while maintaining considerable activity against cancer cell lines
- IC50 ([6]; 4320 min): 25 µM
- IC50 ([7]; Table 7, Capan-1, read-out: Cytotoxicity (IC50)): 3.1 µM
- CC50 [8]: < 100 µM
- IC50 ([12]; Table 7, Molt-4): 0.001 µM
- IC50 ([9]; Table 7, HL-60, read-out: Cytotoxicity (IC50)): 0.78 µM
- DNA cleavage (φX174 Form I DNA; [24]): greatly reduced in vitro DNA cleaving ability

Compound: O=C(OCCS(=O)(=O)c1ccccc1)N1c2ccccc2C23OC24CCCC3C#C/C=C\C#CC14 (stereo not drawn) [Compound 45]
- IC50 (SK-Mel-28 melanoma cells; SK-MEL-28, SK-Mel-28, read-out: IC50): 6.3 µM
- IC50 (cancer cell lines): 0.2 µM
- deaths / weight course ([13]; 12 mg/kg): three of the four animals died
- increase in life span over control group ([13]; 25 mg/kg): 175%
- time to death ([13]; 50 mg/kg, rapid weight loss): ≤ 8 days
- toxicity relative to naturally occurring enediynes [14]: significantly less than naturally occurring enediynes
- LD50 ([14]; mouse, in vivo): ~50 mg/kg
- IC50 ([7]; Homo sapiens, CAPAN-1, Capan-1, read-out: IC50): 1.6 µM
- IC50 ([9]; Homo sapiens, HL-60, HL-60, read-out: IC50): 3.9 µM
- IC50 [15]: 1.6 µM
- DNA cleavage (φX174 Form I DNA; pH 8.5, 24 or 48 hours): strong DNA cleavage activity
- DNA cleavage potency (φX174 Form I DNA; pH 8.5, 1000 and 100 μM): comparable potencies

Compound: CCNC1COC(OC2C(OC)OC(C)C(NOC3CC(O)C(SC(=O)c4c(C)c(I)c(OC5OC(C)C(O)C(OC)C5O)c(OC)c4OC)C(C)O3)C2O)CC1OC (stereo not drawn) [Compound F-1]
- protection of DNA against DNase I [16]: concentration-dependent protection

Compound: CC(C)(COC(=O)N1c2ccccc2[C@@]23O[C@]24CCC[C@H]3C#C/C=C\C#C[C@H]14)S(=O)(=O)c1ccccc1 (relative stereo) [Compound 429]
- IC50 (SK-Mel-28 melanoma cells; [19]): < 100 µM
- Cytotoxicity (IC50) [17]: Non-Toxic
- IC50 [1]: 50 µM
- IC50 [2]: 13 µM
- IC50 [3, 20]: 50 µM
- IC50 ([4]; Homo sapiens, HT-29, 72 h): 25 µM
- IC50 [5, 21]: 50 µM
- IC50 ([6]; Homo sapiens, MCF7, 72 h): 25 µM
- IC50 [7, 22]: 50 µM
- Cytotoxicity (IC50) [18]: Non-Toxic
- IC50 ([12]; Homo sapiens, MOLT-4, Table 7, Molt-4): 100 µM
- IC50 [9, 23]: 25 µM
- DNA cleavage (φX174 Form I DNA; [24]): no DNA cleaving ability

Compound: CCNC1COC(OC2C(OC)OC(C)C(NOC3CC(O)C(SC(=O)c4c(C)c(I)c(OC5OC(C)C(O)C(OC)C5O)c(OC)c4OC)C(C)O3)C2O)CC1OC (stereo not drawn) [Compound G-1]
- protection of DNA against DNase I [16]: no protection at the same concentrations
